Key:
Sprague-Dawley rats [1] = test: Intravenous infusion of humanin or analogs during hyperinsulinemic clamp; type: in vivo, rat
Experimental: To study the acute effects of an infusion of IGFBP-3, two groups of awake, unstressed, chronically catheterized Sprague-Dawley rats (˜300 g) were studied for 300 min (n=3 in each group) under hyperinsulinemic clamp (as previously described). From 120 min the rats received a primed continuous infusion of humanin (0.375 mg/kg/hr) or saline (control) for an additional 2 h. Plasma samples for determination of [3H]glucose and [3H] water specific activities were obtained at 10-min intervals during the basal and clamp periods. Steady state conditions for the plasma glucose concentration and specific activity were achieved within 90 min in all the studies. Plasma samples for determination of HN, insulin and FFA concentrations were collected at 30-min intervals throughout the study. All determinations were also performed on portal vein blood obtained at the end of the experiments. The total amount of blood drawn during the entire study for various assays is ˜3 cc. After separation of plasma (subsequently used for analysis), the red blood cells were reconstituted in saline and infused back into the animal.
To determine if peripheral infusion of the humanin analog colivelin affects insulin action, saline or colivelin (one hundredth of the dose of humanin) was infused intravenously during hyperinsulinemic clamp to two groups of rats that were matched for body weight (˜300 gm), visceral fat (˜3.5 grams), basal glucose (˜135 mg % or 7 mM). Colivelin increased hepatic insulin sensitivity by 33% while peripheral glucose uptake was unchanged (FIG. 14).
A primed-continuous ICV infusion of HN, F6A-HN (total dose of 20 μg), STAT-3 inhibitor (75 pmol) (Buettner et al. 2006), or aCSF was initiated at t=0 and maintained for the remainder of the experiment (FIG. 15A). Pancreatic insulin-clamp studies or euglycemic-hyperinsulinemic clamps were performed in conscious, unrestrained, catheterized mice for last 120 minutes as described previously (Bahar et al. 2006, Muzumdar et al. 2006). In the intra-venous group, HN, F6A, Colivelin, and HNGF6A were infused intravenously and hyperinsulinemic clamps were performed as described previously (Loeb et al. 2005). Estimation of glucose, glucose fluxes, insulin, FFA were done as described previously (Loeb et al. 2005). HN measurements were performed by an in-house, ELISA utilizing affinity purified humanin antibodies that recognize both human and rat humanin and has a limit of detection of 0.1 ng/ml (Hwang, and Cohen personal communication).

Sprague-Dawley rats [2] = test: Peripheral IGFBP-3 infusion during hyperinsulinemic clamp; type: in vivo, rat
Experimental: To study the acute effects of an infusion of IGFBP-3, two groups of awake, unstressed, chronically catheterized Sprague-Dawley rats (˜300 g) were studied for 300 min (n=6 in each group) under hyperinsulinemic clamp (as previously described). From 120 min the rats received a primed continuous infusion of IGFBP-3 (0.06 mg/kg/hr) or saline (control) for an additional 3 h.
Plasma samples for determination of [^3H]glucose and [^3H] water specific activities were obtained at 10-min intervals during the basal and clamp periods. Steady state conditions for the plasma glucose concentration and specific activity were achieved within 90 min in all the studies. Plasma samples for determination of plasma IGF-1 (rat and human), IGFBP-3 (human IGFBP-3), GH, insulin, leptin, and FFA concentrations were collected at 30-min intervals throughout the study. All determinations were also performed on portal vein blood obtained at the end of the experiments. The total amount of blood drawn during the entire study for various assays is ˜3 cc. After separation of plasma (subsequently used for analysis), the red blood cells were reconstituted in saline and infused back into the animal.
Plasma glucose (sample volume 10 μl) was measured by the glucose oxidase method (Glucose Analyzer II, Beckman Instruments, Palo Alto, Calif.). Plasma [^3H]glucose radioactivity was measured in duplicates in the supernatants of Ba(OH)2 and ZnSO4 precipitates of plasma samples (20 μl) after evaporation to dryness to eliminate tritiated water. […] Plasma insulin (10 μl) was measured by RIA using rat insulin standard for basal studies and human insulin standard for insulin clamp studies. […] Plasma non-esterified fatty acid concentrations (5 μl) were determined by an enzymatic method with an automated kit according to the manufacturer's specification (Waco Pure Chemical Industries, Osaka, Japan). Rat IGF-1 (50 μl) was measured with a rIGF-1 ELISA kit (DSL, Webster, Tex.). Human IGF-1 (50 μl) was measured with an in-house kit developed in UCLA using a double monoclonal antibody ELISA with sensitivity of 0.1 ng/ml and an intra-assay and inter-assay coefficient of variations which are <6% and <8%, respectively, in the range from 1 to 6 ng/ml. Human IGFBP-3 (30 μl) was measured with an ELISA kit (DSL, Webster, Tex.). This kit reads both IGFBP-3 and NLS IGFBP-3. […] Serum levels of rat growth hormone were determined using an enzyme immunoassay (EIA) kit (ALPCO, Windham, N.H.) according to the manufacturer's instructions. […]
Under steady-state conditions for plasma glucose concentrations, the rate of glucose disappearance (Rd) equals the rate of glucose appearance (Ra). The latter was calculated as the ratio of the rate of infusion of [3-^3H]glucose (dpm/min) and the steady-state plasma [^3H]glucose specific activity (dpm/mg). […]

[3] = IV during hyperinsulinemic clamp, humanin 0.375 mg/kg/hr, colivelin one hundredth of the dose of humanin
[4] = 0.06 mg/kg/hr IV, hyperinsulinemic clamp

Compound | HGP / hepatic insulin action (Sprague-Dawley rats [1]; IV during hyperinsulinemic clamp, HN 0.375 mg/kg/hr, Colivelin 0.00375 mg/kg/hr) | increase in hepatic insulin sensitivity (Sprague-Dawley rats [1]; [3]) [%] | peripheral glucose uptake (Sprague-Dawley rats [1]; [3]) | levels in rat CSF after peripheral infusion, range (Sprague-Dawley rats [1]; peripherally infused humanin) [ng/mL] | human IGFBP-3 levels during the IGFBP-3 infusion (Sprague-Dawley rats [2]; 0.06 mg/kg/hr IV for 3 h) [ng/mL] | higher HGP compared to controls (Sprague-Dawley rats [2]; [4]) [%] | reduction in insulin stimulated glucose uptake compared to controls (Sprague-Dawley rats [2]; [4]) [%] | level in rat CSF after peripheral infusion, mean (Sprague-Dawley rats [2]; peripherally infused IGFBP-3) [ng/mL]
CC[C@H](C)[C@H](NC(=O)[C@H](CCC(=O)O)NC(=O)[C@H](CO)NC(=O)[C@@H](NC(=O)[C@H](CC(C)C)NC(=O)[C@H](CC(C)C)NC(=O)[C@H](CC(C)C)NC(=O)[C@H](CC(C)C)NC(=O)[C@H](CS)NC(=O)[C@H](CO)NC(=O)[C@H](Cc1ccccc1)NC(=O)CNC(=O)[C@H](CCCNC(=N)N)NC(=O)[C@@H]1CCCN1C(=O)[C@H](C)NC(=O)[C@@H](N)CCSC)[C@@H](C)O)C(=O)N[C@@H](CC(=O)O)C(=O)N[C@@H](CC(C)C)C(=O)N1CCC[C@H]1C(=O)N[C@H](C(=O)N[C@@H](CCCCN)C(=O)N[C@@H](CCCNC(=N)N)C(=O)N[C@@H](CCCNC(=N)N)C(=O)N[C@@H](C)C(=O)O)C(C)C [Humanin, maprgfscll lltseidlpv krra] | trend towards decreased HGP | 80 | unchanged | 0 to 40 | – | – | – | –
IGFBP-3: non glycosylated hIGFBP-3 (IGF binding protein-3), provided by Celtrix | – | – | – | – | 1960 ± 360 | 30 | ~17 | 7

Reference: patent publication US9034825B2, “Treatment of myocardial injury with humanin analogs” (Albert Einstein College of Medicine of Yeshiva University, priority 2007, dated 2015)
